Experimental data published in PMC9594048, “Targeting a Multidrug-Resistant Pathogen: First Generation Antagonists of Burkholderia cenocepacia’s BC2L-C Lectin” (ACS Chemical Biology, 2022).
Like-named read-outs stand apart in the source and are kept apart here.

Columns and labels:
[1] = molecular target: T1, BC2L-C-Nt (rBC2L-CN2) (Burkholderia cenocepacia, UniProt B4EH86); assay: Isothermal titration calorimetry (ITC); type: binding; settings: for Kd: 25 °C
Description: All experiments were performed at 25 °C with an ITC200 isothermal titration calorimeter (Microcal-Malvern Panalytical, Orsay, France). The protein rBC2L-CN2 and its ligands were dissolved in a buffer composed of 20 mM Tris HCl pH 7.0 and 100 mM NaCl. The 200 μL sample cell containing rBC2L-CN (concentrations ranging from 200 to 400 μM) was subjected to injections of ligand solution: 20 to 39 injections of 1 μL or 70 injections of 0.5 μL (5 to 50 mM, chosen depending on the ligand) at intervals of 100, 120, or 200 s, while stirring at 850 rpm. Control experiments were performed by repeating the same protocol, but injecting the ligand into buffer solution. The supplied software Origin 7 or MicroCal PEAQ-ITC was used to fit the experimental data to a theoretical titration curve allowing the determination of affinity.
3. Ligand evaluation materials and methods
3.1. Isothermal Titration Calorimetry
All experiments were performed at 25 °C with an ITC200 isothermal titration calorimeter (Microcal - Malvern Panalytical, Orsay, France). The protein rBC2L -CN2 and its ligands were dissolved in a buffer composed of 20 mM Tris HCl pH 7.0 and 100 mM NaCl. The 200 µL sample cell containing rBC2L-CN (concentrations ranging from 200 to 400 µM) was subjected to injections of ligand solution: 20 to 39 injections of 1 µL or 70 injections of 0.5 µL (5 to 50 mM, chosen depending on the ligand) at intervals of 100, 120 or 200s while stirring at 850 rpm. Control experiments were performed by repeating the same protocol, but injecting the ligand into buffer solution. The supplied software Origin 7 or MicroCal PEAQ-ITC was used to fit the experimental data to a t heoretical titration curve allowing the determination of affinity (i.e., association constant, K a), binding enthalpy (∆H), and stoichiometry (n). Values for free energy change (∆G) and entropy contributions (T∆S) […]
1.K-1. For experiments in ligand excess, the stoichiometry was fixed to 1. […]

[2] = molecular target: T1, BC2L-C-Nt (rBC2L-CN2); assay: Surface plasmon resonance (SPR) affinity on BC2L-C-Nt-coated chip; type: binding; settings: 25 °C, rBC2L-CN2 immobilized on CM5 chip, multi-cycle affinity; SD from duplicates
Description: Experiments were performed on a BIACORE X100 instrument (GE Healthcare) at 25 °C in running buffer 10 mM HEPES pH 7.4, 150 mM NaCl, and 0.05% Tween 20, adjusted to include 8% DMSO when required. rBC2L-CN2 was immobilized onto CM5 chips (BIACORE) following the amine coupling procedure detailed in the Supporting Information. The analytes were dissolved in the running buffer at increasing concentrations (range: 3.28–3500 μM) and subjected to multi-cycle affinity studies (300 s association, 300 s dissociation, flow rate 5 μL/min). Injections of compounds at increasing concentrations onto the immobilized rBC2L-CN2 were followed by regeneration of the surface: 10 mM fucose in running buffer and then running buffer at 5 μL/min (100 and 150 s, respectively) after each analyte association/dissociation. For the higher concentrations, regeneration was secured by performing one or more runs replacing analyte by running buffer. Duplicates were performed for all ligands. Binding affinity (KD) was measured after subtracting the channel 1 reference (no immobilized protein) and subtracting a blank injection (running buffer—zero analyte concentration). Data evaluation and curve fitting were performed using the provided BIACORE X100 evaluation software (version 2.0). The protein-coated chip was stored at 4 °C in running buffer and was functional up to 8 weeks after fabrication, as proven by experimentation. […]
3.2. Surface plasmon Resonance
Experiments were performed on a BIACORE X100 instrument (GE Healthcare) at 25 °C in running buffer 10 mM HEPES pH 7.4, 150 mM NaCl and 0.05% Tween 20, adjusted to include 8% DMSO when indicated. rBC2L-CN2 was immobilized onto CM5 chips (BIACORE) following the amine […]
• Activation of the chip by three injections of a NHS/EDC mixture at 10 μL/min for 540s, until a minimum of 300 RU was observed on both channels.
• Injection of rBC2L-CN2 (0.5 mg/mL) dissolved in 10 mM sodium acetate pH 4.5 onto channel 2 (contact time of 540s, flow rate of 10 μL/min), until a minimum of 7000 RU was […]
• Inactivation of both channels by injecting a 1M ethanolamine (pH 8.5) solution at 5 μL/min for 1080s, achieving over 400 and 7000 RU for channel 1 and 2, respectively.
The analytes were dissolved in the running buffer at increasing concentrations (range: 3.28 − 3500 μM) and subjected to multi-cycle affinity studies (300s association, 300s dissociation, flow rate 5 μL/min). Injections of compounds at increasing concentrations onto the immobilized rBC2L-CN2 were followed by regeneration of the surface: 10 mM fucose in running buffer, then running buffer at 5 μL/min (100s and 150s, respectively) after each analyte association/dissociation. For the higher concentrations, regeneration was secured by performing one or more runs replacing analyte by running buffer. Duplicates were performed for all ligands. Binding affinity (KD) was measured after subtracting the channel 1 reference (no immobilized protein) and subtracting of a blank injection (running buffer - zero analyte concentration). Data evaluation and curve fitting was performed using the provided BIACORE X100 evaluation software (version 2.0). […]

[3] = Solubility (qualitative remark); type: physicochemical; settings: prevented affinity evaluation by ITC
[4] = molecular target: T1, BC2L-C-Nt (rBC2L-CN2); assay: biochemical; type: binding; settings: for Tonset / Tm1 / Tm2: protein 14.3 μM, ligand 143 μM; for Tonset: SD from duplicates; for Tm1: first thermal event, protein alone 82.2 °C; for Tm2: main thermal event, protein alone 84.5 °C; for ΔTm2: shift of main thermal event vs protein alone
Description: Experiments were performed on a Microcal PEAQ-DSC instrument (Malvern Panalytical, Orsay, France). A buffer composed of 20 mM Tris HCl pH 7.0 and 100 mM NaCl was used to dilute the protein rBC2L-CN2 and its ligands to concentrations 14.3 and 143 μM, respectively. Samples of 250 μL were loaded, while the reference cell was filled with the matching buffer (aforementioned buffer, ligands when relevant). […] The data were acquired on “Low” feedback mode. The supplied software MicroCal PEAQ-DSC Software 1.53 was used to fit the experimental data. […] The profile obtained was fitted with a “NonTwoState” model, accounting for two thermal events. Each experiment was performed in duplicates, and their averages were calculated by the software.
3. […]
3.3. Differential Scanning Calorimetry
Experiments were performed on a Microcal PEAQ-DSC instrument (Malvern Panalytical, Orsay, […]

[5] = 20 mM Tris HCl pH 7.0, 100 mM NaCl, SD from duplicates

T1 sequence (B4EH86 entry or part of it): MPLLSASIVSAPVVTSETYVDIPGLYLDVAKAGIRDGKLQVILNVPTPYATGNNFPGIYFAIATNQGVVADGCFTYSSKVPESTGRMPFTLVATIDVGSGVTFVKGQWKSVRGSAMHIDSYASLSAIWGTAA

Structure (SMILES) | Kd [1, 5] [µM] | Kd [2] [µM] | also measured
C[C@@H]1O[C@H](NC(=O)c2ccc(C(C)(C)CN)cc2)[C@@H](O)[C@H](O)[C@@H]1O [8a] | 2550 ± 1000 | 940 ± 10 | 
CNCc1ccc(C(=O)N[C@H]2O[C@@H](C)[C@@H](O)[C@@H](O)[C@@H]2O)cc1 [8b] | 3660 ± 210 | 1570 ± 60 | 
C[C@@H]1O[C@H](NC(=O)c2ccc(-c3cccc(N)c3)o2)[C@@H](O)[C@H](O)[C@@H]1O [8c] |  | 2360 ± 970 | solubility [3]: very low and poor
C[C@@H]1O[C@H](NC(=O)c2ccc3cc[nH]c3c2)[C@@H](O)[C@H](O)[C@@H]1O [8d] | 3490 ± 1300 | 3420 ± 220 | 
C[C@@H]1O[C@H](NC(=O)c2ccc3[nH]ccc3c2)[C@@H](O)[C@H](O)[C@@H]1O [8e] |  | 1420 ± 20 | activity compared with methyl-fucoside 13 (ITC) ([1]; ITC KD compared with […]): better activity than methyl-fucoside 13
C[C@@H]1O[C@H](n2cc(-c3ccc(C(C)(C)CN)cc3)nn2)[C@@H](O)[C@H](O)[C@@H]1O [12a] | 2490 ± 60 | 1190 ± 50 | 
CNCc1ccc(-c2cn([C@H]3O[C@@H](C)[C@@H](O)[C@@H](O)[C@@H]3O)nn2)cc1 [12b] | 6250 ± 720 | 2450 ± 20 | 
C[C@@H]1O[C@H](C#Cc2ccc(C(C)(C)CN)cc2)[C@@H](O)[C@H](O)[C@@H]1O [22a] | 280 ± 10 | 1330 ± 150 | Kd [1]: 281 µM; affinity increase from αMeFuc (ITC) ([1]; relative to […]): ~10 fold; Tonset [4]: 73.29 ± 1.54 °C; Tm1 [4]: 82.43 ± 0.02 °C; Tm2 [4]: 84.71 ± 0.01 °C; ΔTm at 143 µM ([4]; read-out: ΔTm1): 0.21 °C; ΔTm at 143 µM ([4]; read-out: ΔTm2): 0.17 °C
CNCc1ccc(C#C[C@H]2O[C@@H](C)[C@@H](O)[C@@H](O)[C@@H]2O)cc1 [22b] | 1240 ± 70 | 7850 ± 3390 | 
C[C@@H]1O[C@H](C#CC(O)c2ccc3ncccc3c2)[C@@H](O)[C@H](O)[C@@H]1O (stereo partly shown) [22f] |  | 301 ± 1 | Kd [1]: 490 µM
C[C@@H]1O[C@H](C#Cc2ccc(CNC(=N)N)cc2)[C@@H](O)[C@H](O)[C@@H]1O [22g] | 910 ± 30 | 1300 ± 600 | 
CNCc1ccc(/C=C/[C@H]2O[C@@H](C)[C@@H](O)[C@@H](O)[C@@H]2O)cc1 [28b] | 3370 ± 400 | 1020 ± 20 | 
CC(=O)N[C@H]1C(O)O[C@H](CO)[C@@H](O)[C@@H]1O[C@@H]1O[C@H](CO)[C@H](O)[C@H](O)[C@H]1O[C@@H]1O[C@@H](C)[C@@H](O)[C@@H](O)[C@@H]1O (stereo partly shown) [H-type 1 trisaccharide, Fucα(1–2)Galβ(1–3)GlcNAc] |  |  | Tonset [4]: 74.09 ± 0.26 °C; Tm1 [4]: 82.65 ± 0.01 °C; Tm2 [4]: 84.92 ± 0.01 °C; ΔTm1 ([4]; shift of first thermal event vs protein alone): 0.44 °C; ΔTm2 [4]: +0.38 °C; ΔTm2 ([4]; listed as H-type 1): 0.38 ± 0.01 °C
